Common to all, as to assay type: physicochemical
Series [1] can be described thus: Thermal gravimetric analysis (TGA). To be noted: ambient to 600° C., heating rate 20° C./min. The protocol:
TGA was performed with a TA Instruments TGA 550. Samples (5 mg) were heated in aluminium pans with a sealed aluminium lid from ambient temperature to 600° C. at a heating rate of 20° C./min. Processing was completed using TRIOS software.

A short description of series [2]: Polarized light microscopy (PLM), crystal habit. The source says: Crystal habits of zongertinib forms XXIV, XIX and XX have been elucidated using polarized light microscopy. Depending on the starting material, form XVIII can be obtained in different crystal shapes.
Series [3] is described as follows: Form IV slurry experiments in aqueous organic solvents with heat-cool cycles, solids analyzed by XRPD. To be noted: 20 to 50° C. heat-cool cycles. The protocol:
Zongertinib form IV (e.g. prepared according to any one of the procedures of reference example 1.3) was slurried in different aqueous organic solvent systems (12V, composition according to table 1) at a temperature ranging from 20 to 50° C. using a magnetic stir bar. Heat-cool-cycles were conducted using automation available on the Junior robot and as per the below program: • 1. Set stirring to 350 rpm (by means of magnetic stir bars) • 2. Heat to 50° C. (10° C./minute) • 3. Hold at 50° C. for 150 minutes • 4. Cool to 20° C. (−1° C./minute) • 5. Hold at 20° C. for 120 minutes • 6. Heat to 50° C. (5° C./minute) • 7. Hold at 50° C. for 120 minutes • 8. Cool to 20° C. (−1° C./minute) • 9. Set stirring to 0 rpm • 10. Hold at 20° C. for 16 hrs
The solids were collected and analyzed by XRPD.
XRPD was performed with a Bruker D8 Discover X-ray diffractometer. The instrument detector allows for two-dimensional diffractograms to be acquired. Solid samples were placed on a zero-background diffraction plate. The results were processed using DIFFRAC.EVA software. The diffraction pattern was integrated from two-dimensional to one-dimensional. The Kα2 contribution was stripped, no smoothing or background correction was performed. A typical precision of the 2-Theta values is in the range of ±0.2° 2-Theta, preferably in the range of ±0.1° 2-Theta. Thus, a reflection that usually appears at 7.0 2-Theta for example can appear between 6.8° and 7.2° 2-Theta, preferably between 6.9° and 7.1° 2-Theta on most X-ray diffractometers under standard conditions.

Series [4] in a line: Suspension of form IV and form III stirred at 35° C. for 18 hrs, solid analyzed by XRPD. To be noted: mixture of form IV and form III. How it is done: A suspension of zongertinib form IV (e.g. prepared according to any one of the procedures of reference example 1.3) and zongertinib form III (e.g. prepared according to reference example 1.2) in 20V of 1:1 (vol:vol) IPAc/water was stirred using overhead agitation at 35° C. for 18 hrs. The solid was collected and analyzed by XRPD confirming receipt of form XX.
A suspension of zongertinib form IV (e.g. prepared according to any one of the procedures of reference example 1.3) and zongertinib form III (e.g. prepared according to reference example 1.2) in 20V of water was stirred using overhead agitation at 35° C. for 18 hrs. The solid was collected and analyzed by XRPD confirming receipt of form XX.
XRPD was performed with a Bruker D8 Discover X-ray diffractometer. The instrument detector allows for two-dimensional diffractograms to be acquired. Solid samples were placed on a zero-background diffraction plate. The results were processed using DIFFRAC.EVA software. The diffraction pattern was integrated from two-dimensional to one-dimensional. The Kα2 contribution was stripped, no smoothing or background correction was performed. A typical precision of the 2-Theta values is in the range of ±0.2° 2-Theta, preferably in the range of ±0.1° 2-Theta. […]

Series [5] can be described thus: Excessive drying of form XXIV and/or form XIX. To be noted: typically temperatures >50° C. under vacuum. How it is done:
Form XVIII is formed upon excessive drying of form XXIV and/or form XIX (e.g. prepared according to any one of examples 1.1 to 1.4 herein). Typically, drying is performed at temperatures >50° C. under vacuum.

In the case of `C=CC(=O)NC1CCN(c2ncc3ncnc(Nc4ccc(Oc5ccc6c(c5)ncn6C)c(C)c4)c3n2)CC1` [Form XVIII, zongertinib], the “TGA sample decomposition start temperature” value in series [1] (listed as form XVIII) is “about 394 °C”. The “Crystal Habit” value was “lath-shaped crystals” in series [2] (listed as XVIII (drying of XIX)); “plate-shaped and lath shaped crystals” in series [2] (listed as XVIII (drying of XXIV)).
With `C=CC(=O)NC1CCN(c2ncc3ncnc(Nc4ccc(Oc5ccc6c(c5)ncn6C)c(C)c4)c3n2)CC1` [Form XX, zongertinib], the “TGA sample decomposition start temperature” value in series [1] (listed as form XX) was “about 393 °C”. For the same compound, the “Crystal Habit” value in series [2] (listed as XX) was “needle-shaped crystals”.
For the compound `C=CC(=O)NC1CCN(c2ncc3ncnc(Nc4ccc(Oc5ccc6c(c5)ncn6C)c(C)c4)c3n2)CC1` [Form IV, zongertinib], the “XRPD results after slurry” value in series [3] (12V 1:1 (vol:vol) ACN:water) is recorded as “Form XIX”; in series [3] (12V 1:1 (vol:vol) EtOH:water), “Form XIX”; in series [3] (12V 1:1 (vol:vol) IPAc:water) it was “Form XXIV”; in series [3] (12V 2:1 (vol:vol) THF:water), “Form XXIV”. Further, the “Solid form by XRPD after stirring suspension” value in series [4] (20V of 1:1 (vol:vol) IPAc/water) and in series [4] (20V of water) was “form XX” each time.
Regarding `C=CC(=O)NC1CCN(c2ncc3ncnc(Nc4ccc(Oc5ccc6c(c5)ncn6C)c(C)c4)c3n2)CC1` [Form XXIV, zongertinib], in series [1] (listed as form XXIV), the “TGA sample decomposition start temperature” value is “about 415 °C”. Moreover, in series [5], the “Form obtained upon excessive drying” value is recorded as “Form XVIII”. For the same compound, the “Crystal Habit” value in series [2] (listed as XXIV) is “plate-shaped and lath shaped crystals”.
Take `C=CC(=O)NC1CCN(c2ncc3ncnc(Nc4ccc(Oc5ccc6c(c5)ncn6C)c(C)c4)c3n2)CC1` [Form XIX, zongertinib]: the “TGA sample decomposition start temperature” value in series [1] (listed as form XIX) was “about 327 °C”. The “Crystal Habit” value in series [2] (listed as XIX) is given as “lath-shaped crystals”.

These data come from patent publication US20250376476A1, “Crystalline forms of a HER2 tyrosine kinase inhibitor” (Boehringer Ingelheim International GmbH, priority 2024, published 2025).
